The text below walks through data of US8404679B2, “Pyrrolidine derivatives as NK2 receptor antagonists” (Hoffmann-La Roche Inc., priority 2008, dated 2013).

pKi: −log10 of the molar value.

The target of this assay is T1, human NK2 receptor (Homo sapiens, UniProt P21452).
T1 construct: purchased Perkin Elmer biosignal Inc. 6110510
T1 sequence (P21452 1-398): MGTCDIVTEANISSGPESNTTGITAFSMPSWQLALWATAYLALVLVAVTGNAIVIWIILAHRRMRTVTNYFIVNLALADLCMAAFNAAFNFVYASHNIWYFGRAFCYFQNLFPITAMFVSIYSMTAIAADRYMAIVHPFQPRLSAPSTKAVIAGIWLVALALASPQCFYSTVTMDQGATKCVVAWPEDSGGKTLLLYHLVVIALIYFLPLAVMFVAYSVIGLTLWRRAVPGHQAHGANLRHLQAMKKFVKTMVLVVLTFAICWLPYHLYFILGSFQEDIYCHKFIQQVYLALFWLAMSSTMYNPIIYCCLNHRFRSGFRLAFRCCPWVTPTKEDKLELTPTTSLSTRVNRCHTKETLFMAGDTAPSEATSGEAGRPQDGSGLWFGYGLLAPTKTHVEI
Briefly: [3H]SR48968 competition binding assay. The conditions noted are these: [3H]SR48968 displacement, membranes of CHO cells stably expressing recombinant human NK2 receptor; Ki from IC50 by Cheng-Prussoff. In outline: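 Membranes from CHO cells stably expressing recombinant human NK2 were incubated 75 min at RT with [3H]SR48968 at its KD and 10 compound concentrations (0.0003–10 μM) in Tris-HCl pH 7.4, MnCl2, chymostatin, BSA. Filter-bound radioactivity was counted; Hill-fitted IC50 converted to Ki via Cheng-Prusoff.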
What is called pKi is the negative decadic logarithm of the Ki, by convention in mol/L. As to `Cc1cc(Cl)cc(C(=O)N(C)[C@@H]2CN(C(=O)c3ccc(C#N)cc3)C[C@H]2c2ccc(Cl)c(Cl)c2)n1` (racemic) [Example 66, rac-4-Chloro-6-methyl-pyridine-2-carboxylic acid [(3S,4R)-1-(4-cyano-benzoyl)-4-(3,4-dichloro-phenyl)-pyrrolidin-3-yl]-methyl-amide], the negative-log Ki (pKi) is 7.30. With `CN(C(=O)c1ccc(F)c(C#N)c1)[C@H]1CN(C(=O)C2CCN(C(=O)C3(C)CC3)CC2)C[C@@H]1c1ccc(Cl)c(Cl)c1` (racemic) [Example 109, 3-Cyano-N-{(3RS,4SR)-4-(3,4-dichloro-phenyl)-1-[1-(1-methyl-cyclopropanecarbonyl)-piperidine-4-carbonyl]-pyrrolidin-3-yl}-4-fluoro-N-methyl-benzamide] the figure was 9.10. With `COc1ccc(C(=O)N(C)[C@H]2CN(C(=O)C3CCN(CC4CC4)CC3)C[C@@H]2c2ccc(Cl)cc2)cc1C(F)(F)F` (racemic) [Example 105, N-[(3RS,4SR)-4-(4-Chloro-phenyl)-1-(1-cyclopropylmethyl-piperidine-4-carbonyl)-pyrrolidin-3-yl]-4-methoxy-N-methyl-3-trifluoromethyl-benzamide] the figure was 9.10. To `COc1ccc(C(=O)N(C)[C@H]2CN(C(=O)C3CCN(CCCSC)CC3)C[C@@H]2c2ccc(Cl)cc2)cc1C(F)(F)F` (racemic) [Example 126, N-{(3RS,4SR)-4-(4-Chloro-phenyl)-1-[1-(3-methylsulfanyl-propyl)-piperidine-4-carbonyl]-pyrrolidin-3-yl}-4-methoxy-N-methyl-3-trifluoromethyl-benzamide] belongs 9.05; to `COc1ccc(C(=O)N(C)[C@@H]2CN(C(=O)c3ccc(F)cc3)C[C@H]2c2ccc(Cl)c(Cl)c2)cc1C(F)(F)F` (racemic) [Example 46, rac-N-[(3S,4R)-4-(3,4-Dichloro-phenyl)-1-(4-fluoro-benzoyl)-pyrrolidin-3-yl]-4-methoxy-N-methyl-3-trifluoromethyl-benzamide], 8.49. On to `CN(C(=O)c1cccc(Cl)c1F)[C@@H]1CN(C(=O)N2CCN(S(C)(=O)=O)CC2)C[C@H]1c1ccc(Cl)c(Cl)c1` (racemic) [Example 21, rac-3-Chloro-N-[(3S,4R)-4-(3,4-dichloro-phenyl)-1-(4-methanesulfonyl-piperazine-1-carbonyl)-pyrrolidin-3-yl]-2-fluoro-N-methyl-benzamide], for which the pKi was 7.88. With `COc1ccc(C(=O)N(C)[C@H]2CN(C(=O)C3CCN(S(=O)(=O)C4CC4)CC3)C[C@@H]2c2ccc(Cl)c(Cl)c2)cc1C(F)(F)F` (racemic) [Example 141, N-[(3RS,4SR)-1-(1-Cyclopropanesulfonyl-piperidine-4-carbonyl)-4-(3,4-dichloro-phenyl)-pyrrolidin-3-yl]-4-methoxy-N-methyl-3-trifluoromethyl-benzamide] the figure was 9.15. In the case of `COc1ccc(C(=O)N(C)[C@@H]2CN(C(=O)c3cc(S(C)(=O)=O)ccc3F)C[C@H]2c2ccc(Cl)c(Cl)c2)cc1C(F)(F)F` (racemic) [Example 49, rac-N-[(3S,4R)-4-(3,4-Dichloro-phenyl)-1-(2-fluoro-5-methanesulfonyl-benzoyl)-pyrrolidin-3-yl]-4-methoxy-N-methyl-3-trifluoromethyl-benzamide], the pKi is 8.60. Consider `CN(C)c1ccc(C(=O)N(C)[C@@H]2CN(C(=O)N3CCN(S(C)(=O)=O)CC3)C[C@H]2c2ccc(Cl)c(Cl)c2)cc1` (racemic) [Example 24, rac-N-[(3S,4R)-4-(3,4-Dichloro-phenyl)-1-(4-methanesulfonyl-piperazine-1-carbonyl)-pyrrolidin-3-yl]-4-dimethylamino-N-methyl-benzamide], for which the pKi is 8.76. In the case of `CN(C(=O)c1ccc(F)c(F)c1)[C@@H]1CN(C(=O)N2CCN(S(C)(=O)=O)CC2)C[C@H]1c1ccc(Cl)c(Cl)c1` (racemic) [Example 27, rac-N-[(3S,4R)-4-(3,4-Dichloro-phenyl)-1-(4-methanesulfonyl-piperazine-1-carbonyl)-pyrrolidin-3-yl]-3,4-difluoro-N-methyl-benzamide], the negative-log Ki (pKi) was 7.79. To `CN(C(=O)CCC1CC1)[C@H]1CN(C(=O)C2CCN(C(=O)C3(C)CC3)CC2)C[C@@H]1c1ccc(Cl)c(Cl)c1` (racemic) [Example 114, 3-Cyclopropyl-N-{(3RS,4SR)-4-(3,4-dichloro-phenyl)-1-[1-(1-methyl-cyclopropanecarbonyl)-piperidine-4-carbonyl]-pyrrolidin-3-yl}-N-methyl-propionamide] belongs 7.76.

Regarding `COc1ccc(C(=O)N[C@H]2CN(C(=O)C3CCN(C(=O)C4(C)CC4)CC3)C[C@@H]2c2ccc(Cl)cc2C)cc1C(F)(F)F` (racemic) [Example 122, N-{(3RS,4SR)-4-(4-Chloro-2-methyl-phenyl)-1-[1-(1-methyl-cyclopropanecarbonyl)-piperidine-4-carbonyl]-pyrrolidin-3-yl}-4-methoxy-3-trifluoromethyl-benzamide], the negative logarithm of the Ki (pKi) is 7.09. With `CN(C(=O)c1ccc(Cl)cn1)[C@@H]1CN(C(=O)c2ccc(C#N)cc2)C[C@H]1c1ccc(Cl)c(Cl)c1` (racemic) [Example 69, rac-5-Chloro-pyridine-2-carboxylic acid [(3S,4R)-1-(4-cyano-benzoyl)-4-(3,4-dichloro-phenyl)-pyrrolidin-3-yl]-methyl-amide] the figure was 7.63; with `COc1ccc(C(=O)N(C)[C@H]2CN(C(=O)c3ccc(F)cc3C)C[C@@H]2c2ccc(Cl)cc2)cc1C(F)(F)F` (racemic) [Example 89, N-[(3RS,4SR)-4-(4-Chloro-phenyl)-1-(4-fluoro-2-methyl-benzoyl)-pyrrolidin-3-yl]-4-methoxy-N-methyl-3-trifluoromethyl-benzamide], 7.63; with `CN(C(=O)c1ccc(Cl)c(C(F)(F)F)c1)[C@H]1CN(C(=O)C2CCN(C3CCOCC3)CC2)C[C@@H]1c1ccc(Cl)cc1` (racemic) [Example 162, 4-Chloro-N-{(3RS,4SR)-4-(4-chloro-phenyl)-1-[1-(tetrahydro-pyran-4-yl)-piperidine-4-carbonyl]-pyrrolidin-3-yl}-N-methyl-3-trifluoromethyl-benzamide], 9.40.

For the compound `CN(C(=O)c1cc(C(F)(F)F)ccc1F)[C@@H]1CN(C(=O)N2CCN(S(C)(=O)=O)CC2)C[C@H]1c1ccc(Cl)c(Cl)c1` (racemic) [Example 38, rac-N-[(3S,4R)-4-(3,4-Dichloro-phenyl)-1-(4-methanesulfonyl-piperazine-1-carbonyl)-pyrrolidin-3-yl]-2-fluoro-N-methyl-5-trifluoromethyl-benzamide], the pKi is 8.02.

`COc1ccc(C(=O)N(C)[C@@H]2CN(C(=O)c3cccc(C#N)c3)C[C@H]2c2ccc(Cl)c(Cl)c2)cc1C(F)(F)F` (racemic) [Example 47, rac-N-[(3S,4R)-1-(3-Cyano-benzoyl)-4-(3,4-dichloro-phenyl)-pyrrolidin-3-yl]-4-methoxy-N-methyl-3-trifluoromethyl-benzamide]: the negative-log Ki (pKi) is 8.44. With `CN(C(=O)c1ccc(Cl)c(C2CC2)c1)[C@H]1CN(C(=O)C2CCN(C(=O)C3(C)CC3)CC2)C[C@@H]1c1ccc(Cl)c(Cl)c1` [Example 175, 4-Chloro-3-cyclopropyl-N-{(3R,4S)-4-(3,4-dichloro-phenyl)-1-[1-(1-methyl-cyclopropanecarbonyl)-piperidine-4-carbonyl]-pyrrolidin-3-yl}-N-methyl-benzamide], the negative-log Ki (pKi) is 7.38.
